Literature values as cited in publication PMC3241508 (Bioconjugate chemistry, 2011).

In the case of dextran sulfate, the “oral absorption into the blood stream” value (later study) is given as “good oral absorption” and the oral absorption (oral) is given as “poorly absorbed orally”.
